From ChEMBL document CHEMBL3045868, “Synthesis and antibacterial activities of para-alkoxy phenyl--ketoaldehyde derivatives” (Med Chem Res, 2013)
Values after ≈ are worked out from the molar mass of the structure shown.

Tests used:
[1] = tested on: Staphylococcus aureus; experiment: Antibacterial activity against Staphylococcus aureus clinical isolate 14 assessed as growth inhibition at pH 9 after 16 to 18 hr by NCCLS agar dilution method; assay type: functional
[2] = tested on: Staphylococcus aureus; experiment: Antibacterial activity against Staphylococcus aureus clinical isolate 18 assessed as growth inhibition at pH 9 after 16 to 18 hr by NCCLS agar dilution method; assay type: functional
[3] = tested on: Staphylococcus aureus; experiment: Antibacterial activity against Staphylococcus aureus clinical isolate 3 assessed as growth inhibition after 16 to 18 hr by NCCLS agar dilution method; assay type: functional
[4] = tested on: Staphylococcus aureus; experiment: Antibacterial activity against Staphylococcus aureus clinical isolate 13 assessed as growth inhibition at pH 7 after 16 to 18 hr by NCCLS agar dilution method; assay type: functional
[5] = tested on: Staphylococcus aureus; experiment: Antibacterial activity against Staphylococcus aureus clinical isolate 19 assessed as growth inhibition at pH 5 after 16 to 18 hr by NCCLS agar dilution method; assay type: functional
[6] = tested on: Staphylococcus aureus; experiment: Antibacterial activity against Staphylococcus aureus clinical isolate 10 assessed as growth inhibition at pH 9 after 16 to 18 hr by NCCLS agar dilution method; assay type: functional
[7] = tested on: Staphylococcus aureus; experiment: Antibacterial activity against Staphylococcus aureus clinical isolate 7 assessed as growth inhibition after 16 to 18 hr by NCCLS agar dilution method; assay type: functional
[8] = tested on: Helicobacter pylori; experiment: Antibacterial activity against Helicobacter pylori 06-5 assessed as growth inhibition after 16 to 18 hr NCCLS agar dilution method; assay type: functional
[9] = tested on: Staphylococcus aureus; experiment: Antibacterial activity against Staphylococcus aureus clinical isolate 13 assessed as growth inhibition at pH 5 after 16 to 18 hr by NCCLS agar dilution method; assay type: functional
[10] = tested on: Staphylococcus aureus; experiment: Bactericidal activity against Staphylococcus aureus clinical isolate 5 after 24 hr; assay type: functional; settings: isolate 5, 24 h
[11] = tested on: Staphylococcus aureus; experiment: Antibacterial activity against methicillin-resistant Staphylococcus aureus isolate 4 assessed as growth inhibition after 16 to 18 hr by NCCLS agar dilution method; assay type: functional
[12] = tested on: Staphylococcus aureus; experiment: Antibacterial activity against Staphylococcus aureus clinical isolate 21 assessed as growth inhibition at pH 5 after 16 to 18 hr by NCCLS agar dilution method; assay type: functional
[13] = tested on: Staphylococcus aureus; experiment: Antibacterial activity against Staphylococcus aureus clinical isolate 3 assessed as growth inhibition at pH 9 after 16 to 18 hr by NCCLS agar dilution method; assay type: functional
[14] = tested on: Staphylococcus aureus; experiment: Bactericidal activity against Staphylococcus aureus clinical isolate 10 after 24 hr; assay type: functional; settings: isolate 10, 24 h
[15] = tested on: Staphylococcus aureus; experiment: Antibacterial activity against methicillin-resistant Staphylococcus aureus isolate 2 assessed as growth inhibition after 16 to 18 hr by NCCLS agar dilution method; assay type: functional
[16] = tested on: Helicobacter pylori; experiment: Antibacterial activity against Helicobacter pylori 06-8 assessed as growth inhibition after 16 to 18 hr NCCLS agar dilution method; assay type: functional
[17] = tested on: Escherichia coli; experiment: Antibacterial activity against Escherichia coli ATCC 25922 assessed as growth inhibition after 16 to 18 hr NCCLS agar dilution method; assay type: functional
[18] = tested on: Staphylococcus aureus; experiment: Antibacterial activity against Staphylococcus aureus clinical isolate 2 assessed as growth inhibition at pH 9 after 16 to 18 hr by NCCLS agar dilution method; assay type: functional
[19] = tested on: Staphylococcus aureus; experiment: Antibacterial activity against Staphylococcus aureus clinical isolate 20 assessed as growth inhibition at pH 5 after 16 to 18 hr by NCCLS agar dilution method; assay type: functional
[20] = tested on: Staphylococcus aureus; experiment: Antibacterial activity against Staphylococcus aureus clinical isolate 24 assessed as growth inhibition at pH 5 after 16 to 18 hr by NCCLS agar dilution method; assay type: functional
[21] = tested on: Staphylococcus aureus; experiment: Bactericidal activity against methicillin-resistant Staphylococcus aureus isolate 2 after 24 hr; assay type: functional; settings: isolate 2, 24 h
[22] = Acute toxicity in KM Mus musculus (mouse) administered through intragastrically measured for 1 week; assay type: organism-based; settings: in vivo, po
[23] = tested on: Staphylococcus aureus; experiment: Antibacterial activity against Staphylococcus aureus clinical isolate 15 assessed as growth inhibition at pH 9 after 16 to 18 hr by NCCLS agar dilution method; assay type: functional
[24] = tested on: Staphylococcus aureus; experiment: Antibacterial activity against Staphylococcus aureus clinical isolate 23 assessed as growth inhibition at pH 5 after 16 to 18 hr by NCCLS agar dilution method; assay type: functional
[25] = tested on: Staphylococcus aureus; experiment: Antibacterial activity against Staphylococcus aureus clinical isolate 12 assessed as growth inhibition at pH 5 after 16 to 18 hr by NCCLS agar dilution method; assay type: functional
[26] = tested on: Staphylococcus aureus; experiment: Antibacterial activity against Staphylococcus aureus clinical isolate 11 assessed as growth inhibition at pH 9 after 16 to 18 hr by NCCLS agar dilution method; assay type: functional
[27] = tested on: Staphylococcus aureus; experiment: Antibacterial activity against Staphylococcus aureus clinical isolate 7 assessed as growth inhibition at pH 5 after 16 to 18 hr by NCCLS agar dilution method; assay type: functional
[28] = tested on: Staphylococcus aureus; experiment: Antibacterial activity against Staphylococcus aureus clinical isolate 5 assessed as growth inhibition at pH 9 after 16 to 18 hr by NCCLS agar dilution method; assay type: functional
[29] = tested on: Staphylococcus aureus; experiment: Antibacterial activity against Staphylococcus aureus clinical isolate 3 assessed as growth inhibition at pH 5 after 16 to 18 hr by NCCLS agar dilution method; assay type: functional
[30] = tested on: Staphylococcus aureus; experiment: Antibacterial activity against Staphylococcus aureus clinical isolate 10 assessed as growth inhibition after 16 to 18 hr by NCCLS agar dilution method; assay type: functional
[31] = tested on: Staphylococcus aureus; experiment: Antibacterial activity against Staphylococcus aureus clinical isolate 1 assessed as growth inhibition at pH 5 after 16 to 18 hr by NCCLS agar dilution method; assay type: functional
[32] = tested on: Staphylococcus aureus; experiment: Antibacterial activity against Staphylococcus aureus clinical isolate 5 assessed as growth inhibition at pH 7 after 16 to 18 hr by NCCLS agar dilution method; assay type: functional
[33] = tested on: Staphylococcus aureus; experiment: Antibacterial activity against Staphylococcus aureus clinical isolate assessed as growth inhibition at pH 7 after 16 to 18 hr by NCCLS agar dilution method; assay type: functional
[34] = tested on: Staphylococcus aureus; experiment: Bactericidal activity against Staphylococcus aureus clinical isolate 3 after 24 hr; assay type: functional; settings: isolate 3, 24 h
[35] = tested on: Staphylococcus aureus; experiment: Antibacterial activity against Staphylococcus aureus clinical isolate 10 assessed as growth inhibition at pH 5 after 16 to 18 hr by NCCLS agar dilution method; assay type: functional
[36] = tested on: Staphylococcus aureus; experiment: Bactericidal activity against Staphylococcus aureus clinical isolate 2 after 24 hr; assay type: functional; settings: isolate 2, 24 h
[37] = tested on: Staphylococcus aureus; experiment: Antibacterial activity against Staphylococcus aureus clinical isolate 11 assessed as growth inhibition at pH 5 after 16 to 18 hr by NCCLS agar dilution method; assay type: functional
[38] = tested on: Staphylococcus aureus; experiment: Antibacterial activity against Staphylococcus aureus clinical isolate 17 assessed as growth inhibition at pH 9 after 16 to 18 hr by NCCLS agar dilution method; assay type: functional
[39] = tested on: Staphylococcus aureus; experiment: Bactericidal activity against Staphylococcus aureus clinical isolate 6 after 24 hr; assay type: functional; settings: isolate 6, 24 h
[40] = tested on: Staphylococcus aureus; experiment: Antibacterial activity against Staphylococcus aureus clinical isolate 9 assessed as growth inhibition at pH 7 after 16 to 18 hr by NCCLS agar dilution method; assay type: functional
[41] = tested on: Staphylococcus aureus; experiment: Antibacterial activity against Staphylococcus aureus clinical isolate 9 assessed as growth inhibition at pH 9 after 16 to 18 hr by NCCLS agar dilution method; assay type: functional
[42] = tested on: Helicobacter pylori; experiment: Antibacterial activity against Helicobacter pylori 05-1 assessed as growth inhibition after 16 to 18 hr NCCLS agar dilution method; assay type: functional
[43] = tested on: Staphylococcus aureus; experiment: Antibacterial activity against Staphylococcus aureus clinical isolate 2 assessed as growth inhibition at pH 5 after 16 to 18 hr by NCCLS agar dilution method; assay type: functional

In the case of `CO/N=C/CC(=O)c1ccc(OC)cc1`, the MIC [1] is reported as 8 µg/mL (≈ 38.6 µM), the MIC [2] is reported as 16 µg/mL (≈ 77.2 µM) and the MIC [3] is reported as 8 µg/mL (≈ 38.6 µM). The MIC [4] was 8 µg/mL (≈ 38.6 µM), the MIC [5] was 16 µg/mL (≈ 77.2 µM) and the MIC [6] was 8 µg/mL (≈ 38.6 µM). The MIC [7] was 8 µg/mL (≈ 38.6 µM), the MIC [8] was 32 µg/mL (≈ 154 µM) and the MIC [9] was 32 µg/mL (≈ 154 µM). It also gave an MBC [10] of 64 µg/mL (≈ 309 µM), an MIC [11] of 8 µg/mL (≈ 38.6 µM) and an MIC [12] of 32 µg/mL (≈ 154 µM). The MIC [13] was 8 µg/mL (≈ 38.6 µM), the MBC [14] was greater than 128 µg/mL and the MIC [15] was 8 µg/mL (≈ 38.6 µM). The MIC [16] was 32 µg/mL (≈ 154 µM), the MIC [17] was greater than 64 µg/mL and the MIC [18] was 8 µg/mL (≈ 38.6 µM). For the same compound, the MIC [19] was 64 µg/mL (≈ 309 µM), the MIC [20] was 64 µg/mL (≈ 309 µM) and the MBC [21] was 256 µg/mL (≈ 1240 µM). For the same compound, the MTD at 168 h [22] was 5000 mg/kg, the MIC [23] was 8 µg/mL (≈ 38.6 µM) and the MIC [24] was 16 µg/mL (≈ 77.2 µM). For the same compound, the MIC [25] was 16 µg/mL (≈ 77.2 µM), the MIC [26] was 8 µg/mL (≈ 38.6 µM) and the MIC [27] was 16 µg/mL (≈ 77.2 µM). For the same compound, the MIC [28] was 8 µg/mL (≈ 38.6 µM), the MIC [29] was 32 µg/mL (≈ 154 µM) and the MIC [30] was 16 µg/mL (≈ 77.2 µM). It also gave an MIC [31] of 64 µg/mL (≈ 309 µM), an MIC [32] of 16 µg/mL (≈ 77.2 µM) and an MIC50 [33] of 16 µg/mL (≈ 77.2 µM). For the same compound, the MIC90 [33] was 32 µg/mL (≈ 154 µM), the MBC [34] was 64 µg/mL (≈ 309 µM) and the MIC [35] was 16 µg/mL (≈ 77.2 µM). For the same compound, the MBC [36] was 64 µg/mL (≈ 309 µM), the MIC [37] was 32 µg/mL (≈ 154 µM) and the MIC [38] was 16 µg/mL (≈ 77.2 µM). For the same compound, the MBC [39] was 64 µg/mL (≈ 309 µM), the MIC [40] was 32 µg/mL (≈ 154 µM) and the MIC [41] was 8 µg/mL (≈ 38.6 µM). The MIC [42] was 32 µg/mL (≈ 154 µM) and the MIC [43] was 32 µg/mL (≈ 154 µM).
